Results reported in US9499464B2, “Opsin-binding ligands, compositions and methods of use” (priority 2011, dated 2016).

Test system: P23H opsin
Experiment: Rhodopsin purification and regeneration (P23H cells treated with compound, regenerated with 9-cis-retinal, 480-500 nm absorbance)
Details: P23H cells, 48 hours, regeneration with 9-cis-retinal (20 μM)

Row | Compound | Fold Increase Over Control (480-500 nm absorbance as fold increase over the DMSO control) (compound concentration 10 μM) | Fold Increase Over Control (480-500 nm absorbance as fold increase over the DMSO control) (compound concentration 20 μM)
1 | CC1=CC(=O)[C@H]2C(C)(C)CCC[C@@]12C (racemic) [Compound 1, (±)-(3aR,7aS)-3,3a,7,7-tetramethyl-3a,4,5,6,7,7a-hexahydro-1H-inden-1-one] | 1.7 fold | 
2 | CC1(C)CCC(C)(C)[C@H]2OC(=O)C[C@H]21 (racemic) [Compound 3, (±)-(3aS,7aS)-4,4,7,7-tetramethylhexahydrobenzofuran-2(3H)-one] |  | 2.2 fold
3 | CC1(C)CCC[C@@]2(C)C(=O)CC[C@@H]12 (racemic) [Compound 5, (±)-(3aS,7aR)-4,4,7a-trimethyloctahydro-1H-inden-1-one] | 1.7 fold | 
4 | COC(=O)C1=C[C@]2(C)CCCC(C)(C)[C@@H]2C1 (racemic) [Compound 8, (±)-(3aS,7aS)-methyl 3a,7,7-trimethyl-3a,4,5,6,7,7a-hexahydro-1H-indene-2-carboxylate] |  | 2.1 fold
5 | CC1=CC(=NO)[C@H]2C(C)(C)CCC[C@@]12C (racemic) [Compound 14, (±)-(3aR,7aS)-3,3a,7,7-tetramethyl-3a,4,5,6,7,7a-hexahydro-1H-inden-1-one oxime] |  | 2.4 fold
6 | C[C@@H]1CC(=NO)[C@H]2C(C)(C)CCC[C@@]12C (racemic) [Compound 16, (±)-(3R,3aS,7aS)-3,3a,7,7-tetramethyloctahydro-1H-inden-1-one oxime] |  | 2.2 fold
7 | CC1(C)CCC[C@@]2(C)[C@@H](O)CC[C@@H]12 (racemic) [Compound 18, (±)-(1S,3aS,7aR)-4,4,7a-trimethyloctahydro-1H-inden-1-ol] |  | 1.7 fold
8 | C[C@H]1C(=O)C=C2C(C)(C)CCC[C@]21C (racemic) [Compound 20, (±)-(1R,7aS)-1,4,4,7a-tetramethyl-5,6,7,7a-tetrahydro-1H-inden-2(4H)-one] |  | 1.9 fold
9 | CC1(C)CCC[C@@]2(C)C=C(CO)C[C@@H]12 (racemic) [Compound 22, (±)-((3aS,7aS)-3a,7,7-trimethyl-3a,4,5,6,7,7a-hexahydro-1H-inden-2-yl)methanol] |  | 1.8 fold
10 | CC1(C)CCC[C@@]2(C)CC(CO)C[C@@H]12 (mixture of isomers) [Compound 26, (±)-((3aS,7aS)-3a,7,7-trimethyloctahydro-1H-inden-2-yl)methanol] |  | 2.3 fold
11 | CC1(C)CCC[C@@]2(C)C(c3ccccc3)=CC(=O)[C@@H]12 (racemic) [Compound 28, (±)-(3aR,7aS)-3a,7,7-trimethyl-3-phenyl-3a,4,5,6,7,7a-hexahydro-1H-inden-1-one] | 1.7 fold | 
12 | CC(C)C1=CC(=O)[C@H]2C(C)(C)CCC[C@@]12C (racemic) [Compound 29, (±)-(3aR,7aS)-3-isopropyl-3a,7,7-trimethyl-3a,4,5,6,7,7a-hexahydro-1H-inden-1-one] | 2.4 fold | 
13 | CC1(C)CCC[C@@]2(C)C(=NO)CC[C@@H]12 (racemic) [Compound 33, (±)-(3aS,7aR)-4,4,7a-trimethyloctahydro-1H-inden-1-one oxime] | 1.8 fold | 
14 | CCC1=CC(=O)[C@H]2C(C)(C)CCC[C@@]12C (racemic) [Compound 34, (±)-(3aR,7aS)-3-ethyl-3a,7,7-trimethyl-3a,4,5,6,7,7a-hexahydro-1H-inden-1-one] | 2.2 fold | 
15 | CC1(C)CCC[C@@]2(C)C=C[C@H](O)[C@@H]12 (racemic) [Compound 36, (±)-(1S,3aS,7aS)-3a,7,7-trimethyl-3a,4,5,6,7,7a-hexahydro-1H-inden-1-ol] | 2.0 fold | 
16 | CC1(C)CCC[C@@]2(C)C=C[C@@H](O)[C@@H]12 (racemic) [Compound 37, (±)-(1R,3aS,7aS)-3a,7,7-trimethyl-3a,4,5,6,7,7a-hexahydro-1H-inden-1-ol] | 1.8 fold | 
17 | CC1(C)CCC[C@@]2(C)CC(=O)C[C@@H]12 (racemic) [Compound 40, (±)-(3aS,7aS)-3a,7,7-trimethylhexahydro-1H-inden-2(3H)-one] | 1.8 fold | 
18 | CC(C)(C)C1=CC(=O)[C@H]2C(C)(C)CCC[C@@]12C (racemic) [Compound 43, (±)-(3aR,7aS)-3-tert-butyl-3a,7,7-trimethyl-3a,4,5,6,7,7a-hexahydro-1H-inden-1-one] | 1.7 fold | 
19 | CC1(C)CCC[C@@]2(C)C(C3CC3)=CC(=O)[C@@H]12 (racemic) [Compound 44, (±)-(3aR,7aS)-3-cyclopropyl-3a,7,7-trimethyl-3a,4,5,6,7,7a-hexahydro-1H-inden-1-one] | 2.2 fold | 
20 | CC(C)C1=CC(=NO)[C@H]2C(C)(C)CCC[C@@]12C (racemic) [Compound 45, (±)-(3aR,7aS)-3-isopropyl-3a,7,7-trimethyl-3a,4,5,6,7,7a-hexahydro-1H-inden-1-one oxime] | 3.0 fold | 
21 | CC(C)[C@@H]1CC(=O)[C@H]2C(C)(C)CCC[C@@]12C (racemic) [Compound 46, (±)-(3S,3aS,7aS)-3-isopropyl-3a,7,7-trimethyloctahydro-1H-inden-1-one] | 1.8 fold | 
22 | CON=C1C=C(C(C)C)[C@]2(C)CCCC(C)(C)[C@H]12 (racemic) [Compound 51, (±)-(3aR,7aS)-3-isopropyl-3a,7,7-trimethyl-3a,4,5,6,7,7a-hexahydro-1H-inden-1-one O-methyl oxime] | 1.7 fold | 
23 | CC(C)[C@@H]1C[C@H](O)[C@H]2C(C)(C)CCC[C@@]12C (racemic) [Compound 58, (±)-(1S,3S,3aS,7aS)-3-isopropyl-3a,7,7-trimethyloctahydro-1H-inden-1-ol] |  | 2.0 fold
24 | CC1(C)CCC[C@@]2(C)CC[C@H](O)[C@@H]12 (racemic) [Compound 60, (±)-(1S,3aS,7aS)-3a,7,7-trimethyloctahydro-1H-inden-1-ol] |  | 2.1 fold
25 | CC(C)[C@H]1C(=O)C=C2[C@H]1CCCC2(C)C (racemic) [Compound 61, (±)-(1R,7aS)-1-isopropyl-4,4-dimethyl-5,6,7,7a-tetrahydro-1H-inden-2(4H)-one] |  | 1.8 fold
26 | CC1(C)CCC[C@@]2(C)CC(=NO)C[C@@H]12 (racemic) [Compound 62, (±)-(3aS,7aS)-3a,7,7-trimethylhexahydro-1H-inden-2(3H)-one oxime] |  | 2.3 fold
